Assay results reported in article PMC9532562 (Acta Pharmaceutica Sinica. B, 2022).

Assays:
[1] = biological target: HDAC1 (Homo sapiens, UniProt Q13547); experiment: HDAC enzyme inhibition assay; assay type: biochemical
[2] = biological target: HDAC2 (Homo sapiens, UniProt Q92769); experiment: HDAC enzyme inhibition assay; assay type: biochemical
[3] = biological target: HDAC3 (Homo sapiens, UniProt O15379); experiment: HDAC enzyme inhibition assay; assay type: biochemical
[4] = biological target: HDAC4 (Homo sapiens, UniProt P56524); experiment: HDAC enzyme inhibition assay; assay type: biochemical
HDAC4, sequence (P56524 whole entry): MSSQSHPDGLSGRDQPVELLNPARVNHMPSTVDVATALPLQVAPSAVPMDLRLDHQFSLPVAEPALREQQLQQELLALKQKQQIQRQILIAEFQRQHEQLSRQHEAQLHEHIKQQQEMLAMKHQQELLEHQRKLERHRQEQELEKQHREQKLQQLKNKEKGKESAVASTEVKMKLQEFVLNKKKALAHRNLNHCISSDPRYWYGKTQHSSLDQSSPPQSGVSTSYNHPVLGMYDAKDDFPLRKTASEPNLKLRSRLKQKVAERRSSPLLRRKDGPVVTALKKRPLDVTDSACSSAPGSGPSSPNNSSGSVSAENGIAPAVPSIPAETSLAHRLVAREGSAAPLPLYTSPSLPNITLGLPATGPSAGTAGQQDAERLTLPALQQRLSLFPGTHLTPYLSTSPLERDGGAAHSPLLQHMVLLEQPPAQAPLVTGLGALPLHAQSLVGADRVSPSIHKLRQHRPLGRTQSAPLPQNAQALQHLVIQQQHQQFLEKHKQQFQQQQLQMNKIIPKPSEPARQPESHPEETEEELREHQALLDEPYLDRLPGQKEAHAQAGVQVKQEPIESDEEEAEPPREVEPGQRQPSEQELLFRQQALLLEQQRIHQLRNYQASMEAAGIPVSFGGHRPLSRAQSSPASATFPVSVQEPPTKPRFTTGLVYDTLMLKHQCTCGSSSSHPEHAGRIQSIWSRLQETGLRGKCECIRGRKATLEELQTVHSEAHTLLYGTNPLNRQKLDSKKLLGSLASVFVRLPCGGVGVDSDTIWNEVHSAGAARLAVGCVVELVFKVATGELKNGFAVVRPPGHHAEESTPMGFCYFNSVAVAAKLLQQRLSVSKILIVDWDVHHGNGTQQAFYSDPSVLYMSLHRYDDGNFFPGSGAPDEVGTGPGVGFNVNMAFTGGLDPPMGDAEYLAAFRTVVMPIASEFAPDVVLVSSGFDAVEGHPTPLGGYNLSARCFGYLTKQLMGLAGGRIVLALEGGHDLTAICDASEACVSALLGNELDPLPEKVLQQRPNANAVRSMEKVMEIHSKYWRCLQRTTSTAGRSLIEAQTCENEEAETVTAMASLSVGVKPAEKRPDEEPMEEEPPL

[5] = biological target: HDAC5 (Homo sapiens, UniProt Q9UQL6); experiment: HDAC enzyme inhibition assay; assay type: biochemical
HDAC5, sequence (Q9UQL6 whole entry): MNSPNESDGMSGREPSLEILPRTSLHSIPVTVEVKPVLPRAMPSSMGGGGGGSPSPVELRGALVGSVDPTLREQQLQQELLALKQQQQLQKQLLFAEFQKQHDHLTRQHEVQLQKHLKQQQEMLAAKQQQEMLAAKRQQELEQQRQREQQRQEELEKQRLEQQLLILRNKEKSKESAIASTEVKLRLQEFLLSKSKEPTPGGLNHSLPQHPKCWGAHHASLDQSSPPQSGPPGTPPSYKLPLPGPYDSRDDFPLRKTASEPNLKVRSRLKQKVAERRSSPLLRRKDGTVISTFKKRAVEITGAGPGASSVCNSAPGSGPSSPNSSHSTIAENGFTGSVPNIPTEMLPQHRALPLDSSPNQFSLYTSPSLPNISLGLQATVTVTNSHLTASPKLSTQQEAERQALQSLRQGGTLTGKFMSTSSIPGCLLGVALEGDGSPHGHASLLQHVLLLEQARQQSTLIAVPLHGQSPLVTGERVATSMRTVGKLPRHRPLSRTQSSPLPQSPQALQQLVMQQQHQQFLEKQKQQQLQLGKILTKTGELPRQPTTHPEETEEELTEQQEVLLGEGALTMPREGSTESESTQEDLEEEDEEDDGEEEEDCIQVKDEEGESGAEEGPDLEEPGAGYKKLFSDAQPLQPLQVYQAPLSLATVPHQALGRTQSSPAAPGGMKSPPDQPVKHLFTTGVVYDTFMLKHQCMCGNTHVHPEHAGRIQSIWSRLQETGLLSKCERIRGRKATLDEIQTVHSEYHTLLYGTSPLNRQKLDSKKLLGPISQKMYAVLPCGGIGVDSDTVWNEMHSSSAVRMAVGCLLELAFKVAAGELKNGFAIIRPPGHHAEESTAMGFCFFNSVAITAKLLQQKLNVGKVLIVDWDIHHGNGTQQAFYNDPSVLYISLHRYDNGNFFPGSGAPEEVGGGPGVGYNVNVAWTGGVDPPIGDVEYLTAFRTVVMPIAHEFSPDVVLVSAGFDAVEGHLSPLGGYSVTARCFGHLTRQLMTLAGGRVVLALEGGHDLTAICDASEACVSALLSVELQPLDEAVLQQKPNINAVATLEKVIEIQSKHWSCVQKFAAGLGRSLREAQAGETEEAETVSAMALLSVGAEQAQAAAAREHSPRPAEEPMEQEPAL

[6] = biological target: T1, HDAC6 (Homo sapiens, UniProt Q9UBN7); experiment: HDAC enzyme inhibition assay; assay type: biochemical
T1 sequence (Q9UBN7 1-1215): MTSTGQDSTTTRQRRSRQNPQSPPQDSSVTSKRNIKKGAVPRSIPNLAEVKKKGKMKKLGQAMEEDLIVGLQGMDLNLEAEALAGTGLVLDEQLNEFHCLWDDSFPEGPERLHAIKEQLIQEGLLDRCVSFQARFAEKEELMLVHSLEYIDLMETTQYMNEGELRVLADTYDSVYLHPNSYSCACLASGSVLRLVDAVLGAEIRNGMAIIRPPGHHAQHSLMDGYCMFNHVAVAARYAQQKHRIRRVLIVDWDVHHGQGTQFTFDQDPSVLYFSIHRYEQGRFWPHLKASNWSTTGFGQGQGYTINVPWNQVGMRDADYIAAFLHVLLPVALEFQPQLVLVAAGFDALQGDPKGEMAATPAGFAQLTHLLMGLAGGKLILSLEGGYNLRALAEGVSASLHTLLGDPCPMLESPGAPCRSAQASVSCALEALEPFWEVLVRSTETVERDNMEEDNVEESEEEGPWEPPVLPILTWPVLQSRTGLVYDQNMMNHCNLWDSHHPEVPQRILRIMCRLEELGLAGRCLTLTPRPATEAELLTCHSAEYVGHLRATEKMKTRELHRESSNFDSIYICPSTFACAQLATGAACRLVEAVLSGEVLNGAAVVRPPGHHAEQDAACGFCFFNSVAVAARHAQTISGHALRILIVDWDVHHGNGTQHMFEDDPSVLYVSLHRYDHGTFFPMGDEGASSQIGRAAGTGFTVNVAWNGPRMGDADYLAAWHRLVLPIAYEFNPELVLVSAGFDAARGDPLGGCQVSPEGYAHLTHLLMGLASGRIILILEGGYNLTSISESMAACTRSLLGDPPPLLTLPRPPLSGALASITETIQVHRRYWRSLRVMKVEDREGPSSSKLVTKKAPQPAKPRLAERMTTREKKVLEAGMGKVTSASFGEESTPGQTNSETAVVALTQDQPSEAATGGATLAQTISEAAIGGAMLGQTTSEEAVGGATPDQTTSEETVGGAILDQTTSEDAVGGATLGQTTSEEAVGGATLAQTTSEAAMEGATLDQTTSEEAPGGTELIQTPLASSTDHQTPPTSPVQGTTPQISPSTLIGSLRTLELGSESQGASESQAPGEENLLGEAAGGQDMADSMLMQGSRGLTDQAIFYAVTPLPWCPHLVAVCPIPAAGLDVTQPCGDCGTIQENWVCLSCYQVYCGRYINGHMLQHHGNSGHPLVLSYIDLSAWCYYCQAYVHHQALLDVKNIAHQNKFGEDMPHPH

[7] = biological target: T2, HDAC7 (Homo sapiens, UniProt Q8WUI4); experiment: HDAC enzyme inhibition assay; assay type: biochemical
T2 sequence (Q8WUI4 1-952): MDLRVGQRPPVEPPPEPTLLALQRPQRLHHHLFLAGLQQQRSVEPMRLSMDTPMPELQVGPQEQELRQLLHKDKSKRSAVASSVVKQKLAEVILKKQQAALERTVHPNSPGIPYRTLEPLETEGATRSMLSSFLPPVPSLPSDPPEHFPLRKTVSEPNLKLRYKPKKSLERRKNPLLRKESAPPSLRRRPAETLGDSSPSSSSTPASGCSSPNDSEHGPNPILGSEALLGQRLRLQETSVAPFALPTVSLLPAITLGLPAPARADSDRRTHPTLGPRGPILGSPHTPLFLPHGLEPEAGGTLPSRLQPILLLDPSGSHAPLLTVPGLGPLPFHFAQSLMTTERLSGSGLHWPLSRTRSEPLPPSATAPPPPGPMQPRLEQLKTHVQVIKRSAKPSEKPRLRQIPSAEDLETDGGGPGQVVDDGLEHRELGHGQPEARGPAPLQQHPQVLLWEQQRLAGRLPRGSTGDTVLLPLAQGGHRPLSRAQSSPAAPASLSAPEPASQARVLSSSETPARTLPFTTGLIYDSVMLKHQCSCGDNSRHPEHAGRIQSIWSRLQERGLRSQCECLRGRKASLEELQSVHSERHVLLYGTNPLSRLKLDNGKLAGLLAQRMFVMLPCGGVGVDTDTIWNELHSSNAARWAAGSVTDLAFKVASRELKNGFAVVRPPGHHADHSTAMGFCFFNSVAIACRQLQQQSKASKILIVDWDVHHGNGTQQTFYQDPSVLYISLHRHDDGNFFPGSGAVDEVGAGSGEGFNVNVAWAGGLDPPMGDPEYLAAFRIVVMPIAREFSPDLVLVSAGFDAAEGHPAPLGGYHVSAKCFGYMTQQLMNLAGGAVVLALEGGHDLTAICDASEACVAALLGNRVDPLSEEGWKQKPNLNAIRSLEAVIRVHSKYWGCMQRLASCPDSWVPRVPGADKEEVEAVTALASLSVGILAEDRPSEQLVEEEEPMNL

[8] = biological target: T3, HDAC8 (Homo sapiens, UniProt Q9BY41); experiment: HDAC enzyme inhibition assay; assay type: biochemical
T3 sequence (Q9BY41 1-377): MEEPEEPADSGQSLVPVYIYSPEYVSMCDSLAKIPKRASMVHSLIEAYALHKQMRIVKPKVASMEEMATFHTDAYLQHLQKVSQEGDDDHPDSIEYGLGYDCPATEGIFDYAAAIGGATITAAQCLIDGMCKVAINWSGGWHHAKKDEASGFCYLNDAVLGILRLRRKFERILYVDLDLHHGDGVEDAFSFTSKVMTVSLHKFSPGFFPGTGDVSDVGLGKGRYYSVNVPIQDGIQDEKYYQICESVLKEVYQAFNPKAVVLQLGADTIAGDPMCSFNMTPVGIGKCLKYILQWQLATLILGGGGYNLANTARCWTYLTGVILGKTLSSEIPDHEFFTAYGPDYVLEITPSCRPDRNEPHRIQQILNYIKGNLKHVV

[9] = biological target: HDAC9 (Homo sapiens, UniProt Q9UKV0); experiment: HDAC enzyme inhibition assay; assay type: biochemical
HDAC9, sequence (Q9UKV0 whole entry): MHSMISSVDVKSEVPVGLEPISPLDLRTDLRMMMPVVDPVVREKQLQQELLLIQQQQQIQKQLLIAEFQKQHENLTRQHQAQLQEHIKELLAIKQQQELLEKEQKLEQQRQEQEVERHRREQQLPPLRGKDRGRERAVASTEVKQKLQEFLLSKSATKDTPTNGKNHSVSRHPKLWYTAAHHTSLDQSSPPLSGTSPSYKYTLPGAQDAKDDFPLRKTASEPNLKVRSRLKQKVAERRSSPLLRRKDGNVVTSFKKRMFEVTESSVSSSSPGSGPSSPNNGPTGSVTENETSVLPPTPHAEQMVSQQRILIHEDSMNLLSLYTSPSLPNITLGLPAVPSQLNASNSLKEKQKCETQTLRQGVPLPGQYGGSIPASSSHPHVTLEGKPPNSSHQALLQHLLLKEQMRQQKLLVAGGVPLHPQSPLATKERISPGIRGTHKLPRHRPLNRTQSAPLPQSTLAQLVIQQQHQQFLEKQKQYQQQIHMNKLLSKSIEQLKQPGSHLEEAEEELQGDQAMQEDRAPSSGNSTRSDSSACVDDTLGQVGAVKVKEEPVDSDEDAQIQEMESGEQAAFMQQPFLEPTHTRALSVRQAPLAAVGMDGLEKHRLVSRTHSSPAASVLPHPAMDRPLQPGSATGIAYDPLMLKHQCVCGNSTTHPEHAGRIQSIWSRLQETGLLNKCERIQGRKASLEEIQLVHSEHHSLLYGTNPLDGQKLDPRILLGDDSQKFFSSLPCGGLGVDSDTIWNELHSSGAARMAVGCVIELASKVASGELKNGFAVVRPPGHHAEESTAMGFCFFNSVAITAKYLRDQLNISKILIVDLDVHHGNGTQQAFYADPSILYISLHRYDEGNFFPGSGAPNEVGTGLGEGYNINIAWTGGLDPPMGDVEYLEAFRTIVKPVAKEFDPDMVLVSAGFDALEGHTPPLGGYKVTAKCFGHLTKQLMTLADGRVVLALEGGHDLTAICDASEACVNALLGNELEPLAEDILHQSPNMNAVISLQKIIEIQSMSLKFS

[10] = biological target: T4, HDAC10 (Homo sapiens, UniProt Q969S8); experiment: HDAC enzyme inhibition assay; assay type: biochemical
T4 sequence (Q969S8 1-669): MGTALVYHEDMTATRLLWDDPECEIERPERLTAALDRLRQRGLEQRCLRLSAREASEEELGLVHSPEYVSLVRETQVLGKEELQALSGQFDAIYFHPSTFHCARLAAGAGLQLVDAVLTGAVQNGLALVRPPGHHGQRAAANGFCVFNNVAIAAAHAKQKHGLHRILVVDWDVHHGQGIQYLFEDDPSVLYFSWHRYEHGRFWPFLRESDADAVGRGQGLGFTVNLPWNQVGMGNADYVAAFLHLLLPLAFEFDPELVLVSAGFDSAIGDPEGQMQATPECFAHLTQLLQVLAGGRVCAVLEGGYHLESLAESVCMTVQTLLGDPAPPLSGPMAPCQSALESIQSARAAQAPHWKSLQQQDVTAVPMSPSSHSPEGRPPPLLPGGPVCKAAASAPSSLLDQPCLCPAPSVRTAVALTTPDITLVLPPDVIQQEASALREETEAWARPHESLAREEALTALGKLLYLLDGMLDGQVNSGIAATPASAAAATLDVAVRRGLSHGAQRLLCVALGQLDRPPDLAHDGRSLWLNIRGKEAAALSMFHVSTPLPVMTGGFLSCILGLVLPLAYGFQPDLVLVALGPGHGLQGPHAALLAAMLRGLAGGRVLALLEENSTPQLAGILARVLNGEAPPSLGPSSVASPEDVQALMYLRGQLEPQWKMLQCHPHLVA

[11] = biological target: T5, HDAC11 (Homo sapiens, UniProt Q96DB2); experiment: HDAC enzyme inhibition assay; assay type: biochemical
T5 sequence (Q96DB2 1-347): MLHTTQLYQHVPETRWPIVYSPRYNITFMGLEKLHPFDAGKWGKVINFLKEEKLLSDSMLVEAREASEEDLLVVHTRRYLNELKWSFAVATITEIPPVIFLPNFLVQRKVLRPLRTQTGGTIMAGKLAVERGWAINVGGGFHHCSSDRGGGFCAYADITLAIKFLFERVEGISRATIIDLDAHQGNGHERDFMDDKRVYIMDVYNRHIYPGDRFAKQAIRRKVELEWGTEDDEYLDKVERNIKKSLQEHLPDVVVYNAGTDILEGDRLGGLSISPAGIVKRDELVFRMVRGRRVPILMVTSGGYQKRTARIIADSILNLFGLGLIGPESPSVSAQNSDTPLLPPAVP

[12] = LogD determination, shake flask method; assay type: physicochemical; conditions: n-octanol/PBS, pH 7.4
[13] = Hepatocyte stability; assay type: in vitro ADME; conditions: human, hepatocytes
[14] = biological target: T6, CYP1A2 (Homo sapiens, UniProt P05177); experiment: CYP inhibition assay, pooled human liver microsomes; assay type: in vitro ADME; conditions: probe phenacetin
T6 sequence (P05177 1-516): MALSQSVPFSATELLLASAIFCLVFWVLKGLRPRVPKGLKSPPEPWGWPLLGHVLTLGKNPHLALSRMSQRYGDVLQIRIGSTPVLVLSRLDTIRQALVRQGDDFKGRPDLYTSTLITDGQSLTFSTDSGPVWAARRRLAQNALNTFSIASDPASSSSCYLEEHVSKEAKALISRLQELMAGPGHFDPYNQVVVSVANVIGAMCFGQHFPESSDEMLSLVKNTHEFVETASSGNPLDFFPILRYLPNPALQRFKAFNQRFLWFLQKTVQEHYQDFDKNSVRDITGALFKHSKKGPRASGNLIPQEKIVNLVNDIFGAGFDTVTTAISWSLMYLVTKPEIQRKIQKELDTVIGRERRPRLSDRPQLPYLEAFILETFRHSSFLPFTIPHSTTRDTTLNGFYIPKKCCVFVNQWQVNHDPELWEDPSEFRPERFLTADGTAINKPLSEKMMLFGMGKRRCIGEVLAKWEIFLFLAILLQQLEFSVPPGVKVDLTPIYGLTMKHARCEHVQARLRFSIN

[15] = biological target: CYP2C9 (Homo sapiens, UniProt P11712); experiment: as above; assay type: in vitro ADME; conditions: probe diclofenac
[16] = biological target: CYP2C19 (Homo sapiens, UniProt P33261); experiment: as above; assay type: in vitro ADME; conditions: probe S-mephenytoin
[17] = biological target: CYP2D6 (Homo sapiens, UniProt P10635); experiment: as above; assay type: in vitro ADME; conditions: probe dextromethorphan
[18] = biological target: CYP3A4 (Homo sapiens, UniProt P08684); experiment: as above; assay type: in vitro ADME; conditions: probe testosterone
[19] = Plasma protein binding; assay type: in vitro ADME; conditions: human
[20] = In vivo brain/plasma PK studies; design: species or system C57BL/6 mice; conditions: C57BL/6, mouse, ip, 1 mg/kg

HDAC3, sequence (O15379 whole entry): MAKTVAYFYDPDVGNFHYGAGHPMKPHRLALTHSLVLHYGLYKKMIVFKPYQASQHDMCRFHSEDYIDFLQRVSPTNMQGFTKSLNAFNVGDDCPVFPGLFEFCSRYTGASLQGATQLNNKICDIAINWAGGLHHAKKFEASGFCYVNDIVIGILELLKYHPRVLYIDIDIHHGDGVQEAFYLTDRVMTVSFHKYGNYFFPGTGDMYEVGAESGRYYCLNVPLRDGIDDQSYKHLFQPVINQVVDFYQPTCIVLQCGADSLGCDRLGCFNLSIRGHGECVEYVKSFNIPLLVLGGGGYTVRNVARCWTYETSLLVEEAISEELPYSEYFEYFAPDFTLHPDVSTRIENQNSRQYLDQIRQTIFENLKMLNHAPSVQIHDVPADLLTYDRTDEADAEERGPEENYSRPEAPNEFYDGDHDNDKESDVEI
HDAC3, sequence (Q9Y618 395-489 partner limits assumed): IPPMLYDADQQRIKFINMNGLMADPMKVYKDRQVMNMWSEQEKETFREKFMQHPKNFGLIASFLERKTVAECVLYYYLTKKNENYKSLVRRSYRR
HDAC1, sequence (Q13547 whole entry): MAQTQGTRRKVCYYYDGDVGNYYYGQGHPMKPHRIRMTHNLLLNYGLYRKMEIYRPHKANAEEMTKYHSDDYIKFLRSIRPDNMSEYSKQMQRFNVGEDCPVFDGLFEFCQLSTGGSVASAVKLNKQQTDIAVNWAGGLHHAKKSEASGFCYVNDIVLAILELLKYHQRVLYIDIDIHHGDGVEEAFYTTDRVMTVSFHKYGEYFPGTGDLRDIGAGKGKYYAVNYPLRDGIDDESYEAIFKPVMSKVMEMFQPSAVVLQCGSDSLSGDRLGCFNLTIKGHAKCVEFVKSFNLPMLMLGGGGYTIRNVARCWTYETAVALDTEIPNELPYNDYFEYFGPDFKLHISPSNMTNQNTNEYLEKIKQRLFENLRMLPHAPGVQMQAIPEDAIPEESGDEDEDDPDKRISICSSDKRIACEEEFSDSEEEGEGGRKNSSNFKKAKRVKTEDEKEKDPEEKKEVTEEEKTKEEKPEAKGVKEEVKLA
HDAC2, sequence (Q92769 whole entry): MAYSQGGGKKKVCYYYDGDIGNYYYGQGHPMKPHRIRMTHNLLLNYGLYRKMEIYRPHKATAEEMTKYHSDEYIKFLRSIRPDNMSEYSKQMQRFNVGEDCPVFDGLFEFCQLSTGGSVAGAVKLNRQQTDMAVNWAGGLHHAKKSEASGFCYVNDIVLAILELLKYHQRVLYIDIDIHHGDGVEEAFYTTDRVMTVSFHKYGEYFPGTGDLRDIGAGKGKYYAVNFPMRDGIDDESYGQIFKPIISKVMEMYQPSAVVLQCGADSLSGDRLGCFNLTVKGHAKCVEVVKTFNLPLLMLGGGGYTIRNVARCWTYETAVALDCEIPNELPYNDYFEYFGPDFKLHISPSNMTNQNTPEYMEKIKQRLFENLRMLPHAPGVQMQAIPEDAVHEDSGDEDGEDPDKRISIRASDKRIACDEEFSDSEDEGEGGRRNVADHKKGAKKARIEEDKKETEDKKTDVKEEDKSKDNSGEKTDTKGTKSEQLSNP

IC50 [1]	IC50 [2]	IC50 [3]	IC50 [4]	IC50 [5]	IC50 [6]	IC50 [7]	IC50 [8]	IC50 [9]	IC50 [10]	IC50 [11]	Compound	further results
> 10 µM	> 10 µM	> 10 µM	> 10 µM	> 10 µM	6.46 µM	> 10 µM	> 10 µM	> 10 µM	> 10 µM	9.52 µM	COc1cc(C(=O)NO)ccc1CN1CCCCc2ccccc21 [15a, N-Hydroxy-3-methoxy-4-((2,3,4,5-tetrahydro-1H-benzo[b]azepin-1-yl)methyl)benzamide]	
> 10 µM	> 10 µM	> 10 µM	> 10 µM	> 10 µM	4.16 µM		2.06 µM	> 10 µM	> 10 µM	3.52 µM	COc1cc(CN2CCCCc3ccccc32)ccc1C(=O)NO [15b, N-Hydroxy2-methoxy-4-((2,3,4,5-tetrahydro-1H-benzo[b]azepin-1-yl)methyl)benzamide]	
7.82 µM	> 10 µM	2.96 µM	2.12 µM	2.44 µM	0.0052 µM	0.609 µM	1.68 µM	3.15 µM	8.96 µM	4.38 µM	O=C(NO)c1ccc(CN2CCCCc3ccccc32)c(F)c1 [15c, 3-Fluoro-N-hydroxy-4-((2,3,4,5-tetrahydro-1H-benzo[b]azepin-1-yl)methyl)benzamide]	selectivity for HDAC6 over other HDAC isoforms ([6]; HDAC6 vs other HDAC isoforms): > 119 fold; logD at 1 h [12]: 3.4; half-life at 5 μM [13]: 32.4 min; inhibition at 10 min, 10 μmol/L [14]: 36.8%; inhibition at 10 min, 10 μmol/L [15]: 34.8%; inhibition at 25 min, 10 μmol/L [16]: 54%; inhibition at 10 min, 10 μmol/L [17]: 36.3%; inhibition at 10 min, 10 μmol/L [18]: 89%; fraction unbound [19]: 0.006; Kp at 4 h ([20]; brain and plasma, Brain/plasma ratio, C57BL/6 mice, 4 h): 2.3; concentration at 0.5 h ([20]; brain): 48.5 ng/mL; concentration at 1 h ([20]; brain): 11.5 ng/mL; concentration at 4 h ([20]; brain): 0.82 ng/mL; concentration at 0.5 h ([20]; plasma): 1.32 ng/mL; concentration at 1 h ([20]; plasma): 0.72 ng/mL; concentration at 4 h ([20]; plasma): 0.35 ng/mL
> 10 µM	> 10 µM	2.46 µM	3.56 µM	> 10 µM	0.0251 µM	3.02 µM	9.11 µM	> 10 µM	> 10 µM	5.42 µM	O=C(NO)c1ccc(CN2CCCCc3ccccc32)cc1F [15d, 2-Fluoro-N-hydroxy-4-((2,3,4,5-tetrahydro-1H-benzo[b]azepin-1-yl)methyl)benzamide]	
